# In patent publication US7678812B2, “Aminotetralin-derived urea modulators of vanilloid VR1 receptor” (Janssen Pharmaceutica NV, priority 2002, dated 2010):
# Where “and” joins values, the source holds several entries; their conditions need not be identical. Equal entries are not always repeated. Where two headings read alike, the source gives them in different places.
# Assays:
# hVR1 receptors [1] = biological target: T1, hVR1 receptors (Homo sapiens, UniProt Q8NER1); assay: [3H] RTX binding assay, human VR1; design: expressed in transfected cells; host or cells: HEK293 (membrane preparation); settings: inhibition of [3H] RTX binding, membranes of HEK293 cells transfected with human VR1
# T1 sequence (Q8NER1 whole entry): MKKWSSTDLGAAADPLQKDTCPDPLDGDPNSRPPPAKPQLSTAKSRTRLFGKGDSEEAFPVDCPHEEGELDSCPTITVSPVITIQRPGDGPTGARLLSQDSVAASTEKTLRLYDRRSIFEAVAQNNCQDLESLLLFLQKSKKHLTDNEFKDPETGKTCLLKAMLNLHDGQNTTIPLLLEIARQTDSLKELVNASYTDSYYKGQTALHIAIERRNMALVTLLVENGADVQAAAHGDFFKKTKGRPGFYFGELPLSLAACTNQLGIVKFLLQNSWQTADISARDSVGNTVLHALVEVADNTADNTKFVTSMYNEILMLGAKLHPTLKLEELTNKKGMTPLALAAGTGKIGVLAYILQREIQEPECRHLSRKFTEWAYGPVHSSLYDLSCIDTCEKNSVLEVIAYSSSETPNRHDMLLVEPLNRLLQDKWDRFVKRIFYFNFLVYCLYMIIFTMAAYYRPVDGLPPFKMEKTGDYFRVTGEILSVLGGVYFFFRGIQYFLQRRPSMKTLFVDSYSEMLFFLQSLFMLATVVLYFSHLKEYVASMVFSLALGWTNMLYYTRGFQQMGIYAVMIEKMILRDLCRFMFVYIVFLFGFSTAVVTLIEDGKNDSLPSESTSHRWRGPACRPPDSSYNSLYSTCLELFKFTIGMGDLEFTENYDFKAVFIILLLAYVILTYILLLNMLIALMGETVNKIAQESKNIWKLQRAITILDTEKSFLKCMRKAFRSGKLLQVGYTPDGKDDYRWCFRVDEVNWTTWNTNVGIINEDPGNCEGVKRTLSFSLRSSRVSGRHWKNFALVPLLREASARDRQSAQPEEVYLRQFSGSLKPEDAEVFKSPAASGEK
# Description: Compounds of the present invention were tested for their ability to inhibit the binding of [^3H] RTX to hVR1 receptors in a [^3H] RTX binding assay as previously described (Zhang, Sui-Po. Improved ligand binding assays for vanilloid receptors. PCT Int. Appl. (2002), 29 pp. CODEN: PIXXD2 WO 0233411 A1 20020425 AN 2002:315209; Grant, Elfrida R.; Dubin, Adrienne E.; Zhang, Sui-Po; Zivin, Robert A.; Zhong, Zhong Simultaneous intracellular calcium and sodium flux imaging in human vanilloid receptor 1 (VR1)-transfected human embryonic kidney cells: a method to resolve ionic dependence of VR1-mediated cell death. Journal of Pharmacology and Experimental Therapeutics (2002), 300(1), 9-17.)
# HEK293 cells were transfected with human VR1 vanilloid receptors and washed with Hank's Balanced Salt Solution, dissociated with cell dissociation buffer (Sigma), and then centrifuged at 1000×g for 5 min. Cell pellets were homogenized in cold 20 mM HEPES buffer, pH 7.4, containing 5.8 mM NaCl, 320 mM sucrose, 2 mM MgCl2, 0.75 CaCl2 and 5 mM KCl and centrifuged at 1000×g for 15 min. The resultant supernate was then centrifuged at 40000×g for 15 min. The pelleted membranes were kept in an −80° C. freezer.
# Approximately 120 μg protein/ml from membranes were incubated with indicated concentrations of [^3H] RTX in 0.5 ml of the HEPES buffer (pH 7.4) containing 0.25 mg/mL fatty acid-free bovine serum albumin at 37° C. for 60 min. The reaction mixture was then cooled to 4° C., 0.1 mg α1-acid glycoprotein added to each sample and incubated at 4° C. for 15 min. The samples were centrifuged at 18500×g for 15 min. The tip of the microcentrifuge tube containing the pellet was cut off. Bound radioactivity was quantified by scintillation counting. Non-specific binding was tested in the presence of 200 nM unlabeled RTX.
# [2] = tested on: capsaicin-induced guinea pig bronchial ring contraction; assay: Isolated guinea pig bronchial rings, capsaicin-induced contraction (organ bath); settings: capsaicin concentration-response shift; 105 at 1000 nM; ±SEM
# Description: Aminotetralin VR1 antagonists were tested for their potency to block capsaicin-induced guinea pig bronchial ring contraction in a standard in vitro organ bath assay [Tucker, 2001]. Two mm rings of bronchial tissue obtained from male guinea pigs (325 g) were suspended in normal Krebs solution between two wire hooks under an initial loading tension of 1 gram. The saline was maintained in a 5% CO2 and 95% O2 atmosphere at 37° C. in the presence of indomethacin (5 μM). A sub-maximal dose of 5-Methylfurmethide (5Mef, 1 μM) was added to each tissue to determine responsiveness using an isometric force transducer. After washout, tissues were exposed to compounds or vehicle for 30 min, treated with thiorphan (10 μM, 5% Na2CO3), and primed using KCl in increasing linear concentrations from 1 mM at 1 mM intervals until a slight increase in muscle tone was induced (˜1% of 5Mef response). […] The dose response curve was calculated as % max of the 5-Mef response and estimated pA2 were determined [Tucker, 2001]).
# [3] = tested on: carrageenan paw-induced thermal hyperalgesia; assay: Carrageenan paw-induced thermal hyperalgesia; assay type: in vivo, rat; settings: for % Recovery: at 1 mg/ml; for ED50: Rattus norvegicus, po
# Description: Each rat was placed on a heated surface (51° C.) in order to measure the time necessary to elicit a response, and an initial (baseline) response time to a thermal stimuli was recorded for each animal. A response is defined as any shaking, licking, or tucking of the treated paw or jumping. Animals not treated with a test compound respond in approximately 20 seconds. The maximal exposure time permitted is 60 seconds to prevent tissue damage. Rats were injected with an irritant (e.g., 1% carrageenan solution in 0.9% saline) subcutaneously into the sub-plantar tissue of the left hind paw to stimulate an acute inflammatory reaction.
# Two hours later, the response time of the animal to the thermal stimulus was evaluated and compared to the animal's baseline response time. This shorter response time was recorded as percent hyperalgesia (% H). A cut-off value for % H (usually 75%) was used during analysis to ensure that the animals were hyperalgesic. Animals were then dosed with test drug or vehicle.
# At some time(s) later (typically 45 and 90 minutes), the response time of the animal to the thermal stimulus was again evaluated. For each time point, a percent reversal of hyperalgesia (% R) was calculated using the following formula: % R=(Drug Latency−Carrageenan latency)/(Baseline latency−Carrageenan latency). ED50 values were calculated from % R obtained at several drug doses.
# Rat VR1 [4] = biological target: T2, Rat VR1 (Rattus norvegicus, UniProt O35433); assay: [3H]-RTX binding assay using rat tissue (spinal cord); design: Rat spinal cord was homogenized twice with a Polytron; from tissue; host or cells: rat spinal cord membranes; settings: rat spinal cord membranes
# T2 sequence (O35433 whole entry): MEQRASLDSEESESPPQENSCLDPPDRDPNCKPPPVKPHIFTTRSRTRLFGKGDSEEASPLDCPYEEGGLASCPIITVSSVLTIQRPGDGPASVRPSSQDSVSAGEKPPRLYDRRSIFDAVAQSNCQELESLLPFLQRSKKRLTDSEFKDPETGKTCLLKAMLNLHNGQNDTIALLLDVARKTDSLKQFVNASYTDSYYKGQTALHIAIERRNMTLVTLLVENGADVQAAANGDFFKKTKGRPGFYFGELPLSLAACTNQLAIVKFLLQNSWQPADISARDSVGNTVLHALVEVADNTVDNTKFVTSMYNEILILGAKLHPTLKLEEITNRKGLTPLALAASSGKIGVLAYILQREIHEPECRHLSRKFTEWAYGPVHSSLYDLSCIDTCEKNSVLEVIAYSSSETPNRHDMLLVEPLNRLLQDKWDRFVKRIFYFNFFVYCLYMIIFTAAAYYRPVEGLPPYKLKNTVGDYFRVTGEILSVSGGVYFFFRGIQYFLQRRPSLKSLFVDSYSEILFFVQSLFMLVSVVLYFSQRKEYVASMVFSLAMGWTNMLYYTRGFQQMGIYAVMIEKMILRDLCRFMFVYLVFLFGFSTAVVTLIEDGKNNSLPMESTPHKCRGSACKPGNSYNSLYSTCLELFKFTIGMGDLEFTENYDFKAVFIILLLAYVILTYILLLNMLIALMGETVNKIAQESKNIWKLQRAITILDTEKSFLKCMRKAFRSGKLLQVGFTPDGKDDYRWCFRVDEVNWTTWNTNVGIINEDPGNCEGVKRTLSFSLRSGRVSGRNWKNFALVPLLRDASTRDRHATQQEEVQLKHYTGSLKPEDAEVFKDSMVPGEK
# Description: Alternatively, a binding assay using rat tissue was used. Rat spinal cord was homogenized twice with a Polytron and centrifuged at 3000 rpm for 10 min in HEPES buffer containing 20 mM HEPES, pH 7.4, NaCl 5.8 mM, sucrose 320 mM, MgCl2 2 mM, CaCl2 0.75 mM and KCl 5 mM. The supernatant was then centrifuged at 18,000 rpm for 20 min. The pellet was saved in a tube and 10 ml assay buffer was added into the tube. The pellet and buffer were mixed with a Polytron. The assay contained 120 μg/ml membrane protein and 0.3-0.6 nM [^3H]-RTX (NEN, Boston) in a total volume of 0.5 ml HEPES buffer. Following-incubation for 60 min at 37 C, the samples were cooled down on ice, and 100 mg of α-acid glycoprotein were added into the samples. After centrifugation at 13,000 rpm for 15 min, the supernatant was aspirated and the tips of tubes were cut off and placed into 6 ml vials. Data were calculated according to the equation: % inhibition=(total binding−binding)*100/(total binding−non specific binding). Ki value values were calculated using a Prism program.
# [5] = biological target: T3, VR1 expressed endogenously on small rat dorsal root ganglion (DRG) neurons (Rattus norvegicus, UniProt O35433); assay: Electrophysiologic functional assay using dissociated rat DRG cells (whole cell patch clamp); assay type: cell-based; settings: compound concentration 1 uM; initial response to 0.3 uM capsaicin
# T3 construct: VR1 expressed endogenously on small rat dorsal root ganglion (DRG) neurons; endogenous in cells; host or cells: dissociated DRG neurons from normal rats
# T3 sequence (O35433 whole entry): as above
# Description: Compounds 42, 95, 101, 105 and 106 were tested for their activity on VR1 expressed endogenously on small rat dorsal root ganglion (DRG) neurons. DRG neurons from normal rats were dissociated (see methods in Chaplan et al., 2003) and whole cell currents mediated by VR1 were recorded using the whole cell patch clamp technique. […] This was followed by application of 10 μM CAP in the presence of compound. […] The ability of 1 and 10 μM CAP to cause an increased current after exposure to a compound of the invention was compared to controls.
# Rat VR1 [6] = biological target: T2, Rat VR1; assay: Broadly stimulated recombinant rat VR1 functional assay (Ca2+ influx, FLIPR); assay type: cell-based; design: expressed in transfected cells
# Excerpt: When nociceptors are exposed to tissue damaging stimuli, VR1 receptors are activated by a plethora of stimuli. In an effort to identify potent and efficacious antagonists at human and rat VR1 that were active under conditions simulating aspects of in vivo inflammation functional assays were developed using FLIPR to determine antagonist activity against endogenous activators and stimuli likely to be present in inflammation. Cell lines were constructed that stably expressed recombinant rat VR1 (rVR1/HEK293). Cells were exposed to various stimuli at their EC80, with the exception of the low pH and DTT stimuli.
# Phoshorylation by PKC. […] Cells were challenged with 300 nM PMA (˜EC80) after 3 min in the indicated antagonist.
# Anandamide. Anandamide is a brain-derived cannabinoid ligand that acts as a near full agonist at VR1 at low μM concentrations [Smart, 2000 #507].
# Reactive oxygen species: Disturbances in the regulatory activities of free radicals may play a role in inflammation [Winrow, 1993]. Reactive oxygen species (ROS) such as H2O2 are formed in inflamed joints.
# Reducing agents: The reducing agent DTT also directly activates VR1 [Vyklicky, 2002]. Cells were challenged with 5-10 mM DTT to stimulate VR1 after 3 min incubation in compound.
# Since many of our animal models were in rat, we cloned the rat VR1 and expressed it stably in HEK293 cells.
# hVR1 receptors [7] = biological target: T1, hVR1 receptors; assay: Broadly stimulated recombinant human VR1 functional assay (Ca2+ influx, FLIPR); assay type: cell-based; design: expressed in transfected cells; host or cells: HEK293
# [8] = 1.5 h, p.o., at 90 min, read-out: ED50
# [9] = reversal of hyperalgesia, read-out: CgHP ED50
# [10] = recombinant rat VR1, stimulus anandamide 10 μM, Ca2+ influx, read-out: IC50, Anandamide
# [11] = recombinant human VR1, stimulus low pH (pH 6.5), Ca2+ influx, read-out: IC50, Low pH
compound,measurement,setting,value
"O=C(Nc1cccc2cnccc12)NC1CCc2cc(F)ccc2C1Cc1ccccc1 (racemic) [Compound 38a, 1-(1-Benzyl-6-fluoro-1,2,3,4-tetrahydronaphthalene-2-yl)-3-isoquinolin-5-yl-urea]",Ki,hVR1 receptors [1],1.76 nM
same,Estimated pA2,[2],8.0 and 8.0±0.02
O=C(Nc1cccc2cnccc12)NC1CCc2cc(F)ccc2C1Cc1cccc(C(F)(F)F)c1 (racemic) [Compound 110],% Recovery,[3]; at 90 min,64.3%
same,Ki,Rat VR1 [4],185 nM
same,Ki,hVR1 receptors [1],0.531 nM
"O=C(Nc1cccc2c(Cl)nccc12)NC1CCc2cc(F)ccc2C1Cc1ccccc1 (single isomer, unassigned) [Compound 105]",ED50,[3]; [8],0.394 mg/kg
same,Ki,Rat VR1 [4],4920 nM
same,Ki,hVR1 receptors [1],10.8 nM
same,Estimated pA2,[2],6.2 and 6.2±0.11 and 6.2 +/− 0.11
same,% of the initial CAP response in presence of 1 uM CAP,[5],0% and 8%
"O=C(Nc1cccc2c[n+]([O-])ccc12)NC1CCc2cc(F)ccc2C1Cc1cccc(C(F)(F)F)c1 (single isomer, unassigned) [Compound 120]",% Recovery,[3]; at 90 min,83.0%
same,Ki,Rat VR1 [4],10000 nM
same,Ki,hVR1 receptors [1],95.7 nM
"O=C(Nc1cccc2c[n+]([O-])ccc12)NC1CCc2cc(F)ccc2C1Cc1cccc(C(F)(F)F)c1 (single isomer, unassigned) [Compound 121]",% Recovery,[3]; at 90 min,80.1%
same,Ki,Rat VR1 [4],88.5 nM
same,Ki,hVR1 receptors [1],5.75 nM
COCOc1ccc(CNC(=S)NC2CCc3ccccc3C2Cc2cccnc2)cc1OC (centres unmarked) [Compound 4],ED50,[3]; [9],0.804 mg/kg
COc1ccc2c(c1)CCC(NC(=S)NCCc1ccc(Cl)cc1)C2Cc1ccccc1 (centres unmarked) [Compound 17],ED50,[3]; [9],20 mg/kg
"COc1ccc2c(c1)CCC(NC(=O)Nc1cccc3cnccc13)C2Cc1ccccc1 (centres unmarked) [Compound 33, 1-(1-Benzyl-6-methoxy-1,2,3,4-tetrahydronaphthalene-2-yl)-3-isoquinolin-5-yl-urea]",ED50,[3]; [9],0.276 mg/kg
same,"increase in intracellular Ca2+ caused by acidic solutions, anandamide, PMA at low pH and H2O2","Rat VR1 [6]; rat recombinant VR1, 3 min incubation in antagonist, dose dependent",completely abolished
same,IC50,"Rat VR1 [6]; recombinant rat VR1, PMA at low pH, Ca2+ influx, read-out: IC50, PKC phosphorylation at low pH",47 nM
same,IC50,"Rat VR1 [6]; recombinant rat VR1, stimulus 0.015% H2O2, Ca2+ influx, read-out: IC50, H2O2",33 nM
same,IC50,Rat VR1 [6]; [10],38 nM
same,IC50,"Rat VR1 [6]; recombinant rat VR1, stimulus low pH (pH 5.9), Ca2+ influx, read-out: IC50, Low pH",170 nM
same,Ki,hVR1 receptors [1],3.37 nM
same,"increase in intracellular Ca2+ caused by acidic solutions, anandamide, PMA and H2O2","hVR1 receptors [7]; human recombinant VR1, 3 min incubation in antagonist, dose dependent",completely abolished
same,IC50,"hVR1 receptors [7]; recombinant human VR1, PMA at low pH, Ca2+ influx, read-out: IC50, PKC phosphorylation at low pH",70 nM
same,IC50,"hVR1 receptors [7]; recombinant human VR1, stimulus 0.015% H2O2, Ca2+ influx, read-out: IC50, H2O2 reactive oxygen species",39 nM
same,IC50,"hVR1 receptors [7]; recombinant human VR1, stimulus anandamide 10 μM, Ca2+ influx, read-out: IC50, Anandamide",41 nM
same,IC50,hVR1 receptors [7]; [11],23 nM and 40 nM
same,Estimated pA2,[2],8.0 +/− 0.02
C=CCC1c2ccccc2CCC1NC(=O)Nc1cccc2cnccc12 (centres unmarked) [Compound 57],ED50,[3]; [9],0.354 mg/kg
same,Ki,hVR1 receptors [1],15.4 nM
O=C(Nc1cccc2c[n+]([O-])ccc12)NC1CCc2cc(Cl)ccc2C1Cc1ccccc1 (centres unmarked) [Compound 106],ED50,[3]; [8],0.027 mg/kg
same,Ki,Rat VR1 [4],2840 nM
same,Ki,hVR1 receptors [1],8.6 nM
same,% of the initial CAP response in presence of 1 uM CAP,[5],2%
same,% of the initial CAP response in presence of 10 uM CAP,[5],11%
O=C(Nc1cccc2cnccc12)NC1CCc2cc(F)ccc2C1Cc1ccc(C(F)(F)F)cc1 (centres unmarked) [Compound 107],ED50,[3]; [8],0.92 mg/kg
same,Ki,Rat VR1 [4],28.7 nM
same,Ki,hVR1 receptors [1],0.93 nM
"CCCCCCCCCCCCCC(=O)O[C@@H]1[C@@H](C)[C@@]2(O)[C@@H](C=C(CO)C[C@]3(O)C(=O)C(C)=C[C@@H]23)[C@@H]2C(C)(C)[C@]12OC(C)=O [PMA, phorbol-12-myristate-13-acetate, reference compound]",EC50,"Rat VR1 [6]; rat recombinant VR1, increase in intracellular Ca2+, read-out: EC50 for PMA",90 nM
same,EC50,"hVR1 receptors [7]; human recombinant VR1, increase in intracellular Ca2+, read-out: EC50 for PMA",90 nM
"Cl.Cl.Cl.Cl.Cl.Cl.N.N.N.N.N.N.N.N.N.N.N.N.N.N.[O-2].[O-2].[Ru+3].[Ru+3].[Ru+4] [Ruthenium Red, ruthenium red, reference compound]",IC50,"Rat VR1 [6]; recombinant rat VR1, stimulus 300 nM PMA, Ca2+ influx, read-out: IC50, PKC phosphorylation",300 nM
same,IC50,Rat VR1 [6]; [10],1860 nM
same,IC50,"hVR1 receptors [7]; recombinant human VR1, stimulus 300 nM PMA, Ca2+ influx, read-out: IC50, PKC phosphorylation",500 nM
same,IC50,hVR1 receptors [7]; [11],500 nM
